Source: patent US9873702B2, “Heterocyclic compounds as biogenic amine transport modulators” (Southern Research Institute, priority 2014, dated 2018)

Experiments:
[1] = target: dopamine transporter (DAT) (Rattus norvegicus, UniProt P23977); test: Dopamine reuptake ([^3H]dopamine uptake) inhibition in rat brain synaptosomes; settings: for IC50: DA Uptake EC50 (nM ± SD), rat caudate synaptosomes, 5 nM [^3H]dopamine, 15 min, 25° C., three experiments pooled; for Emax: read-out: DA Uptake Emax (% I ± SD)
dopamine transporter (DAT), sequence (P23977 whole entry): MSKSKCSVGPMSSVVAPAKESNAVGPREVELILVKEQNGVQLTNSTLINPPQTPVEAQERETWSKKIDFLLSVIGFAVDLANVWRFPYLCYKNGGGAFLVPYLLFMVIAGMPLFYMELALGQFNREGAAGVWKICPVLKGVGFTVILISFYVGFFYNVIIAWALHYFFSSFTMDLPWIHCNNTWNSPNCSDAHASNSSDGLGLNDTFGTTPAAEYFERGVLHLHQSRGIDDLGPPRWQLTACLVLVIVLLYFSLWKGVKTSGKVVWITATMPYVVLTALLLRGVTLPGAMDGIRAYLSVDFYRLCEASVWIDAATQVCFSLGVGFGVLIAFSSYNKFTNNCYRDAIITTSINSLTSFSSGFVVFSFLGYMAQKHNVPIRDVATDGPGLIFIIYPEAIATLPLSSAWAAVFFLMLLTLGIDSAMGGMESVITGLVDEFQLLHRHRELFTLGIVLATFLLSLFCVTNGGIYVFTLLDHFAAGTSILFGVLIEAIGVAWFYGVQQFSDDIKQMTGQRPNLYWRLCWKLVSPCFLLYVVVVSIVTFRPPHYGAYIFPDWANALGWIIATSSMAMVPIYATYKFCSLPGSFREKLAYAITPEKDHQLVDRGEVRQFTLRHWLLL

| Structure (SMILES) | melting point | IC50 [1] | Emax [1] |
| --- | --- | --- | --- |
| c1ccc(C(CNc2nc(-c3cccs3)nc3ccccc23)c2ccccc2)cc1 [compound 6, N-(2,2-Diphenylethyl)-2-(thiophen-2-yl)quinazolin-4-amine] | 148 to 152 °C | 575 ± 51 nM | 78 ± 1% |
| c1ccc(C(CCNc2nc(-c3cccs3)nc3ccccc23)c2ccccc2)cc1 [compound 7, N-(3,3-Diphenylpropyl)-2-(thiophen-2-yl)quinazolin-4-amine] | 152 to 155 °C | 910 nM | 100% |
| c1ccc(C(CCNc2nc(N3CCCCC3)nc3ccccc23)c2ccccc2)cc1 [compound 9, N-(3,3-Diphenylpropyl)-2-(piperidin-1-yl)quinazolin-4-amine] | 160 to 164 °C | 140 nM | 100% |
| c1ccc(C(CNc2nc(-c3ccsc3)nc3ccccc23)c2ccccc2)cc1 [compound 10, N-(2,2-Diphenylethyl)-2-(thiophen-3-yl)quinazolin-4-amine] | 152 to 155 °C | 250 nM | < 100% |
| c1ccc(C(Nc2nc(-c3ccsc3)nc3ccccc23)c2ccccc2)cc1 [compound 11, N-Benzhydryl-2-(thiophen-3-yl)quinazolin-4-amine] | 152 to 155 °C | 770 nM | 100% |
| c1ccc(C(Nc2nc(-c3cncnc3)nc3ccccc23)c2ccccc2)cc1 [compound 14, N-Benzhydryl-2-(pyrimidin-5-yl)quinazolin-4-amine] | 210 °C | 234 ± 36 nM | 74 ± 2% |
| c1ccc(C(CNc2nc(-c3cncnc3)nc3ccccc23)c2ccccc2)cc1 [compound 18, N-(2,2-Diphenylethyl)-2-(Pyrimidin-5-yl)Quinazolin-4-Amine] | 213 to 215 °C | 160 nM | < 100% |
| c1ccc(C(CCNc2nc(-c3cncnc3)nc3ccccc23)c2ccccc2)cc1 [compound 22, N-(3,3-Diphenylpropyl)-2-(Pyrimidin-5-yl)Quinazolin-4-Amine] | 154 °C | 750 nM | 100% |
| COc1cc2nc(-c3cnc(N(C)C)nc3)nc(NCC(c3ccccc3)c3ccccc3)c2cc1OC [compound 23, 2-(2-(Dimethylamino)Pyrimidin-5-yl)-N-(2,2-Diphenylethyl)-6,7-Dimethoxyquinazolin-4-Amine] | 92 °C | 720 nM | 100% |
| COc1cc2nc(-c3ccc4[nH]ccc4c3)nc(NCC(c3ccccc3)c3ccccc3)c2cc1OC [compound 24, N-(2,2-Diphenylethyl)-2-(1H-indol-5-yl)-6,7-Dimethoxyquinazolin-4-Amine] | 117 °C | 46 nM | 100% |
| COc1cc2nc(-c3cncnc3)nc(NCC(c3ccccc3)c3ccccc3)c2cc1OC [compound 25, N-(2,2-Diphenylethyl)-6,7-Dimethoxy-2-(Pyrimidin-5-yl)Quinazolin-4-Amine] | 93 °C | 1090 nM | < 100% |
| COc1cc2nc(-c3cccs3)nc(NCC(c3ccccc3)c3ccccc3)c2cc1OC [compound 26, N-(2,2-Diphenylethyl)-6,7-Dimethoxy-2-(Thiophen-2-yl)Quinazolin-4-Amine] | 94 °C | 560 nM | 100% |
| COc1cc2nc(-c3ccsc3)nc(NCC(c3ccccc3)c3ccccc3)c2cc1OC [compound 27, N-(2,2-Diphenylethyl)-6,7-Dimethoxy-2-(Thiophen-3-yl)Quinazolin-4-Amine] | 92 °C | 580 nM | 100% |
| COc1cc2nc(-c3cccnc3)nc(NCC(c3ccccc3)c3ccccc3)c2cc1OC [compound 28, N-(2,2-Diphenylethyl)-6,7-Dimethoxy-2-(Pyridin-3-yl)Quinazolin-4-Amine] | 89 °C | 620 nM | < 100% |
| COc1ncc(-c2nc(NCC(c3ccccc3)c3ccccc3)c3ccccc3n2)cn1 [compound 29, N-(2,2-Diphenylethyl)-2-(2-Methoxypyrimidin-5-yl)Quinazolin-4-Amine] | 67 °C | 36 ± 2 nM | 71 ± 1% |
| c1ccc(C(CNc2nc(-c3ccc4cc[nH]c4c3)nc3ccccc23)c2ccccc2)cc1 [compound 31, N-(2,2-Diphenylethyl)-2-(1H-indol-6-yl)Quinazolin-4-Amine] | 102 °C | 89 ± 23 nM | 81 ± 4% |
| c1ccc(C(CNc2nc(-c3cccc4[nH]ccc34)nc3ccccc23)c2ccccc2)cc1 [compound 32, N-(2,2-Diphenylethyl)-2-(1H-Indol-4-yl)Quinazolin-4-Amine] | 100 °C | 189 ± 37 nM | 68 ± 3% |
| c1ccc(C(CNc2nc(-c3ccc4cn[nH]c4c3)nc3ccccc23)c2ccccc2)cc1 [compound 34, N-(2,2-Diphenylethyl)-2-(1H-Indazol-6-yl)Quinazolin-4-Amine] | 223 °C | 123 ± 20 nM | 68 ± 2% |

The remaining lines, values ahead:

| melting point | IC50 [1] | Emax [1] | Structure (SMILES) |
| --- | --- | --- | --- |
| 229 °C | 475 ± 85 nM | 72 ± 3% | c1ccc(C(CNc2nc(-c3cccc4[nH]ncc34)nc3ccccc23)c2ccccc2)cc1 [compound 35, N-(2,2-Diphenylethyl)-2-(1H-Indazol-4-yl)Quinazolin-4-Amine] |
| 127 °C |  |  | CC(C)(C)OC(=O)N1CCc2cc(-c3nc(NCC(c4ccccc4)c4ccccc4)c4ccccc4n3)ccc21 [compound 74, Tert-Butyl 5-(4-((2,2-Diphenylethyl)Amino)Quinazolin-2-yl)Indoline-1-Carboxylate] |
| 211 °C |  |  | Nc1ncc(-c2nc(NCC(c3ccccc3)c3ncccn3)c3ccccc3n2)cn1 (stereo not shown) [compound 104, 2-(2-Aminopyrimidin-5-yl)-N-(2Phenyl-2-(Pyrimidin-2-yl)Ethyl)Quinazolin-4-Amine] |
| 240 °C |  |  | CN(C)Cc1cnc2ccc(-c3nc(NCC(c4ccccc4)c4ccccc4)c4ccccc4n3)cn12 [compound 112, 2-(3-((Dimethylamino)methyl)Imidazo[1,2-A]pyridin-6-yl)-N-(2,2-Diphenylethyl)Quinazolin-4-Amine] |
| > 250 °C |  |  | c1ccc(C(CNc2nc(-c3ccc4nccn4c3)nc3ccccc23)N2CCOCC2)cc1 (stereo not shown) [compound 122, 2-(Imidazo[1,2-A]Pyridin-6-yl)-N-(2-Morpholino-2-Phenylethyl)Quinazolin-4-Amine] |
| 225 to 227 °C |  |  | CN1CCN(C(CNc2nc(-c3ccc4nccn4c3)nc3ccccc23)c2ccccc2)CC1 (stereo not shown) [compound 126, 2-(Imidazo[1,2-A]Pyridin-6-yl)-N-(2-(4-Methylpiperazin-1-yl)-2-Phenylethyl)Quinazolin-4-Amine] |
| 97 to 99 °C |  |  | O=C(N[C@H](CNc1nc(-c2ccc3nccn3c2)nc2ccccc12)c1ccccc1)c1ccccc1 [compound 150, (S)—N-(2-((2-(Imidazo[1,2-A]Pyridin-6-yl)Quinazolin-4-yl)Amino)-1-Phenylethyl)Benzamide] |
| 235 to 237 °C |  |  | c1ccc(C(CNc2nc(-c3ccc4nccn4c3)nc3ccccc23)c2ccc[nH]2)nc1 (stereo not shown) [compound 159, 2-(Imidazo[1,2-A]pyridin-6-yl)-N-(2-(Pyridin-2-yl)-2-(1H-Pyrrol-2-yl)Ethyl)Quinazolin-4-Amine] |
